Assay results taken from patent US20160030365A1, “PHARMACEUTICAL OR COSMETIC COMPOSITION SUITABLE TO PRESERVE EPITHELIAL STEM CELLS” (GIULIANI S.P.A., priority 2013, published 2016).

System: keratin K15 (cytokeratin 15, CK15) of human epithelial hair follicle stem cells
Assay: Quantitative immunohistochemistry for keratin K15 in organ-cultured human hair follicles
Type: cell-based
Details: for relative intensity of immunohistochemistry of keratin K15: microdissected human anagen VI hair follicles in organ culture, 6 days, relative intensity of the vehicle=1
Excerpt: The scope of the study is to determine the effects of N^1-methyl spermidine, a compound of formula (I) of this invention, on the biomarker keratin K15 (cytokeratin 15, CK15) of human epithelial hair follicle stem cells (heHFSCs). As reference on this point in the literature we can quote Kloepper JE et al. (2008), Immunophenotyping of the human bulge region: the quest to define useful in situ markers for human epithelial hair follicle stem cells and their niche. Exp Dermatol 17: 592-609.
Scalp samples were collected from two women who were submitted to surgical lifting, after obtaining their informed consent. Experiments were performed in compliance with the Helsinki principles, with the Ethics Committee's approval. Details of samples are described in Table 1 below.
J Dermatol Sci 7: SuppIS 55-72.
N^1-methyl-spermidine of the invention or spermidine or the vehicle were changed every 48 hours with the culture medium. A summary of the study procedure is presented in Table 2 below, in which N^1-methyl spermidine, the compound of formula (II) of this invention, used in the test at concentrations of 0.5 and 1.5 μM is the active substance', while spermidine was used as a control at the concentration of 0.5 μM.
The tyramide signal amplification method was used to assess the expression of keratin K15, as described in the abovementioned paper by Kloepper et al. (2008). The cryosections fixed in acetone were washed thrice for 5 minutes using the buffer (0.1 mol/L Tris-HCl, pH 7.5, containing 0.15 mol/L NaCl and 0.05% Tween 20) TNT (Tris-HCl NaCl Tween). Later, peroxidase was inhibited by washing with 3% H2O2 in phosphate buffered saline (PBS) for 15 min. Preincubation was performed with avidin and biotin for 15 minutes, and with 5% normal goat serum in TNT for 30 minutes with intermediate lavage. The Mouse Anti-Human K15 antibody (clone LHK15, Chemicon, Billerica, USA) was diluted in TNT and incubated for one night at 4° C. This incubation period was followed by a second incubation period with a secondary biotinylated Goat Anti-Mouse antibody (1:200 in TNT) for 45 minutes in RT. […] Immunohistochemistry intensity was quantified with the ImageJ software (National Institutes of Health). Stain intensity of the defined reference regions of the follicle was measured and compared between the control groups and groups treated with N^1-methyl spermidine at the concentrations of 0.5 and 1.5 μM, or with spermidine 0.5 μM. • Statistical Analysis
The statistical analysis was performed using a two tailed Student t-test for samples that were not coupled. To group the two experiments, each treatment group was compared with the control group (mean value), and the relative variation in expression was calculated.

| SMILES | inductive effect towards keratin K15 compared with an equal concentration of spermidine (0.5 μM vs spermidine 0.5 μM) | relative intensity of immunohistochemistry of keratin K15 (0.5 μM) | relative intensity of immunohistochemistry of keratin K15 (1.5 μM) |
| --- | --- | --- | --- |
| CN(CCCN)CCCCN [N^1-methyl spermidine, N-(3-aminopropyl)-N^1-methyl-1,4-butandiamine] | higher than that of an equal concentration of 0.5 μM of spermidine | 1.739 | 1.806 |
| NCCCCNCCCN [spermidine, reference compound] |  | 1.12 |  |
